Assay results published in publication PMC8253220, “Molecular design, synthesis and in vitro biological evaluation of thienopyrimidine–hydroxamic acids as chimeric kinase HDAC inhibitors: a challenging approach to combat cancer” (Journal of Enzyme Inhibition and Medicinal Chemistry, 2021).
Where “and” joins values, the source holds several entries; their conditions need not be identical. Equal entries are not always repeated.

Tests used:
Test in all cases: NCI one-dose screen
Type in all cases: cell-based, human
SK-MEL-2 = conditions: Melanoma SK-MEL-2, 10 µM single dose
How it was run: (§1)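 In vitro antiproliferative testing: NCI-60 panel, initial single dose 10 μM, inhibition % derived from percent growth of treated versus untreated control cells.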

786-0 = conditions: Renal 786-0, 10 µM single dose
How it was run: (§2)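 One concentration (10 μM) applied to each line of the full NCI-60 panel; percent growth compared against untreated cells.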

SW-620 = conditions: Colon SW-620, 10 µM single dose
How it was run: (§3)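 Compounds were tested at a single dose of 10 μM across the full NCI-60 cell line panel. Growth was expressed as percent growth relative to untreated control cells, reported as percent inhibition.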

HCC-2998 = conditions: Colon HCC-2998, 10 µM single dose
How it was run: as §2

NCI-H226 = conditions: NSCLC NCI-H226, 10 µM single dose
How it was run: as §1

M14 = conditions: Melanoma M14, 10 µM single dose
How it was run: as §2

ACHN = conditions: Renal ACHN, 10 µM single dose
How it was run: as §2

HS 578T = conditions: Breast HS 578T, 10 µM single dose
How it was run: as §2

DU-145 = conditions: Prostate DU-145, 10 µM single dose
How it was run: as §2

MCF7 = conditions: Breast MCF7, 10 µM single dose
How it was run: (§4)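 NCI-60 one-dose format: 10 μM compound; readout % growth inhibition relative to untreated cells.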

TK-10 = conditions: Renal TK-10, 10 µM single dose
How it was run: as §2

IGROV1 = conditions: Ovarian IGROV1, 10 µM single dose
How it was run: as §2

HOP-92 = conditions: NSCLC HOP-92, 10 µM single dose
How it was run: as §2

LOX IMVI = conditions: Melanoma LOX IMVI, 10 µM single dose
How it was run: as §2

HCT-116 = conditions: Colon HCT-116, 10 µM single dose
How it was run: as §2

SF-268 = conditions: CNS SF-268, 10 µM single dose
How it was run: as §4

NCI-H522 = conditions: NSCLC NCI-H522, 10 µM single dose
How it was run: as §1

KM12 = conditions: Colon KM12, 10 µM single dose
How it was run: as §4

HOP-62 = conditions: NSCLC HOP-62, 10 µM single dose
How it was run: as §1

SF-295 = conditions: CNS SF-295, 10 µM single dose
How it was run: as §2

OVCAR-3 = conditions: Ovarian OVCAR-3, 10 µM single dose
How it was run: as §2

SK-OV-3 = conditions: Ovarian SK-OV-3, 10 µM single dose
How it was run: as §2

MOLT-4 = conditions: Leukemia MOLT-4, 10 µM single dose
How it was run: as §4

SR = conditions: Leukemia SR, 10 µM single dose
How it was run: as §2

SNB-19 = conditions: CNS SNB-19, 10 µM single dose
How it was run: as §1

A549/ATCC = conditions: NSCLC A549/ATCC, 10 µM single dose
How it was run: as §2

T-47D = conditions: Breast T-47D, 10 µM single dose
How it was run: as §2

RXF 393 = conditions: Renal RXF 393, 10 µM single dose
How it was run: as §2

EKVX = conditions: NSCLC EKVX, 10 µM single dose
How it was run: as §1

MALME-3M = conditions: Melanoma MALME-3M, 10 µM single dose
How it was run: as §2

CAKI-1 = conditions: Renal CAKI-1, 10 µM single dose
How it was run: as §2

COLO 205 = conditions: Colon COLO 205, 10 µM single dose
How it was run: as §2

RPMI-8226 = conditions: Leukemia RPMI-8226, 10 µM single dose
How it was run: as §2

UACC-257 = conditions: Melanoma UACC-257, 10 µM single dose
How it was run: as §3

UACC-62 = conditions: Melanoma UACC-62, 10 µM single dose
How it was run: as §2

MDA-MB-231/ATCC = conditions: Breast MDA-MB-231/ATCC, 10 µM single dose
How it was run: as §2

SF-539 = conditions: for Growth Percent: CNS SF-539, 10 µM single dose
How it was run: as §4

Row | SMILES | Growth Percent (SK-MEL-2) | Growth Percent (786-0) | Growth Percent (SW-620) | Growth Percent (HCC-2998) | Growth Percent (NCI-H226) | Growth Percent (M14) | Growth Percent (ACHN) | Growth Percent (HS 578T) | Growth Percent (DU-145) | Growth Percent (MCF7) | Growth Percent (TK-10) | Growth Percent (IGROV1) | Growth Percent (HOP-92) | Growth Percent (LOX IMVI) | Growth Percent (HCT-116) | Growth Percent (SF-268) | Growth Percent (NCI-H522) | Growth Percent (KM12) | Growth Percent (HOP-62) | Growth Percent (SF-295) | further results
1 | Cc1c(C(=O)NCCCC(=O)NO)sc2ncnc(Nc3ccc(NC(=O)Nc4cccc(C(F)(F)F)c4)cc3)c12 [Compound 12c, 1–(4-(6-((4-(hydroxyamino)-4-oxobutyl)carbamoyl)-5-methylthieno[2,3-d]pyrimidin-4-ylamino)phenyl)-3–(3-(trifluoromethyl)phenyl)urea] | 107.8% and 107.86% | 106.6% and 106.68% | 109.4% and 109.44% | 113.6% and 113.65% | 105.6% and 105.63% | 107.2% and 107.23% | 105.9% and 105.92% | 93.9% and 93.91% | 106.6% and 106.64% | 95.2% and 95.26% | 117.7% and 117.79% | 116.7% and 116.77% | 130.0% and 130.03% | 98.1% and 98.14% | 107.2% and 107.24% | 98.7% and 98.75% | 94.1% and 94.19% | 102.1% and 102.13% | 103.3% | 93.7% and 93.78% | Growth Percent (OVCAR-3): 117.8% and 117.86%; Growth Percent (SK-OV-3): 113.9% and 113.94%; Growth Percent (MOLT-4): 102.4% and 102.48%; Growth Percent (SR): 103.3% and 103.37%; Growth Percent (SNB-19): 96.8% and 96.88%; Growth Percent (A549/ATCC): 107.3% and 107.34%; Growth Percent (T-47D): 109.7% and 109.79%; Growth Percent (RXF 393): 108.5% and 108.58%; Growth Percent (EKVX): 100.0% and 100.09%; Growth Percent (MALME-3M): 116.7% and 116.65%; Growth Percent (CAKI-1): 100.6% and 100.67%; Growth Percent (COLO 205): 114.9% and 114.97%; Growth Percent (RPMI-8226): 104.0% and 104.09%; Growth Percent (UACC-257): 107.0%; Growth Percent (UACC-62): 98.5% and 98.59%; Growth Percent (MDA-MB-231/ATCC): 99.1% and 99.12%; Growth Percent (SF-539): 71.5% and 71.52%; inhibition at 10 µM (SF-539; Homo sapiens, CNS SF-539, 10 μM): 28.5%
2 | Cc1c(C(=O)NO)sc2ncnc(Nc3ccccc3)c12 [Compound 15b, N-hydroxy-5-methyl-4-(phenylamino)thieno[2,3-d]pyrimidine-6-carboxamide] | 109.3% and 109.33% | 98.6% and 98.65% | 89.5% and 89.53% | 99.9% and 99.98% | 89.3% and 89.32% | 100.4% and 100.48% | 95.0% and 95.07% | 104.7% and 104.75% | 100.1% and 100.13% | 87.2% and 87.27% | 123.2% and 123.28% | 87.7% | 99.8% and 99.83% | 96.0% and 96.03% | 102.9% | 91.8% and 91.83% | 86.6% and 86.62% | 102.0% and 102.03% | 103.6% and 103.61% | 91.9% and 91.96% | Growth Percent (OVCAR-3): 96.9% and 96.92%; Growth Percent (SK-OV-3): 125.8% and 125.83%; Growth Percent (MOLT-4): 103.5%; Growth Percent (SR): 78.2%; Growth Percent (SNB-19): 93.0% and 93.06%; Growth Percent (A549/ATCC): 98.3% and 98.37%; Growth Percent (T-47D): 90.8% and 90.83%; Growth Percent (RXF 393): 97.2% and 97.22%; Growth Percent (EKVX): 92.7% and 92.76%; Growth Percent (MALME-3M): 101.18%; Growth Percent (CAKI-1): 77.6% and 77.61%; Growth Percent (COLO 205): 115.6% and 115.62%; Growth Percent (RPMI-8226): 106.0% and 106.04%; Growth Percent (UACC-257): 107.0% and 107.03%; Growth Percent (UACC-62): 92.5% and 92.58%; Growth Percent (MDA-MB-231/ATCC): 100.3% and 100.34%; Growth Percent (SF-539): 92.8% and 92.86%
3 | Cc1c(C(=O)NO)sc2ncnc(Nc3ccc(NC(=O)Nc4ccccc4)cc3)c12 [Compound 7a, 1–(4-(6-(hydroxycarbamoyl)-5-methylthieno[2,3-d]pyrimidin-4-ylamino)phenyl)-3-phenylurea] | 107.8% | 95.9% and 95.93% | 98.4% and 98.44% | 99.3% and 99.38% | 99.4% and 99.47% | 95.1% and 95.18% | 102.3% and 102.35% | 97.7% and 97.71% | 100.2% and 100.26% | 90.7% and 90.78% | 108.5% and 108.59% | 103.6% and 103.69% | 117.3% and 117.36% | 90.5% and 90.57% | 93.8% and 93.86% | 91.7% | 92.0% and 92.04% | 94.8% and 94.85% | 102.6% and 102.62% | 96.2% and 96.23% | Growth Percent (OVCAR-3): 105.4% and 105.48%; Growth Percent (SK-OV-3): 122.7% and 122.74%; Growth Percent (MOLT-4): 103.9% and 103.94%; Growth Percent (SR): 99.1% and 99.16%; Growth Percent (SNB-19): 100.2%; Growth Percent (A549/ATCC): 103.8% and 103.82%; Growth Percent (T-47D): 95.7% and 95.72%; Growth Percent (RXF 393): 110.2%; Growth Percent (EKVX): 88.9% and 88.95%; Growth Percent (MALME-3M): 89.5% and 89.51%; Growth Percent (CAKI-1): 91.6% and 91.67%; Growth Percent (COLO 205): 106.8% and 106.84%; Growth Percent (RPMI-8226): 105.4% and 105.45%; Growth Percent (UACC-257): 115.5% and 115.56%; Growth Percent (UACC-62): 101.7% and 101.73%; Growth Percent (MDA-MB-231/ATCC): 91.1% and 91.12%; Growth Percent (SF-539): 96.0%
